Values of other authors, collected in patent US20160243144A1 (Oakdene Holdings LLC, priority 2015, published 2016).

How the values were obtained:
[1] = given orally
[2] = particularly in patients with HE

Structure (SMILES): OC[C@H]1O[C@@H](O[C@@H]2[C@@H](CO)OC(O)(CO)[C@H]2O)[C@H](O)[C@@H](O)[C@H]1O (mixture of isomers) [lactulose]
- time by which urinary excretion is essentially complete [1]: ≤ 24 h
- urinary excretion [1]: ≤ 3%

Structure (SMILES): CO[C@H]1/C=C/O[C@@]2(C)Oc3c(C)c(O)c4c(O)c(c5c(nc6cc(C)ccn65)c4c3C2=O)NC(=O)/C(C)=C\C=C\[C@H](C)[C@H](O)[C@@H](C)[C@@H](O)[C@@H](C)[C@H](OC(C)=O)[C@@H]1C [Rifaximin]
- intra-subject variability in Cmax or AUC [2]: ≥ 30 % CV
